Patent publication US10774042B2, “Crystalline forms of apremilast” (ZAKLADY FARMACEUTYCZNE POLPHARMA SA, priority 2016, dated 2020)

Key:
Type in all cases: physicochemical
[1] = Water solubility of crystalline forms; conditions: for Water solubility: Form B value according to literature findings and experimental data, Form M at the same conditions
[2] = Moisture sorption analysis (Dynamic Vapour Sorption); conditions: result in words
Description: Water Vapour Sorption isotherms were obtained using a Dynamic Vapour Sorption apparatus (model: DVS—Advantage, supplier: Surface Measurement Systems Limited). The DVS apparatus consists of an ultra-microbalance housed inside a temperature-controlled cabinet. The sample was placed into a DVS sample pan under a stream of nitrogen (200 sccm) at 25° C. The humidity was increased ramping in 10% RH (relative humidity) steps from close to 0% RH to 90% RH (sorption phase). Next the humidity was decreased in a similar fashion for the desorption phase. The sample was held at each RH step for mass stabilization (dm/dt 0.02%/min) but not less than 10 minutes. Two cycles of sorption and desorption were investigated.

[3] = Dissolution studies of tablets, paddle method; conditions: at 30 minutes
Description: Dissolution studies were performed using a Hanson SR8PLUS dissolution apparatus, according to European Pharmacopoeia apparatus, paddle method. The samples were tested in 900 mL pH 6.8 with 0.3% SLS at 37.0° C.+/−0.5° C. and the paddle rotation speed was set at 75 rpm. Dissolution study was conducted for 60 min and samples were analyzed using HPLC method.

Water solubility [1] [µg/mL] | Water solubility of Form M relative to Form B (times greater) ([1]; same conditions) [times] | Hygroscopicity [2] | Stability with respect to humidity [2] | Higher dissolution rate compared with prior art Form B [3] | Compound
7 to 12 | – | – | – | – | CCOc1cc([C@@H](CS(C)(=O)=O)N2C(=O)c3cccc(NC(C)=O)c3C2=O)ccc1OC [Form B, N-[2-[(1S)-1-(3-ethoxy-4-methoxyphenyl)-2-(methylsulfonyl)ethyl]-1,3-dioxo-2,3-dihydro-1H-isoindol-4-yl]acetamide, reference compound]
29 | ~3 | substantially non-hygroscopic | – | – | CCOc1cc([C@@H](CS(C)(=O)=O)N2C(=O)c3cccc(NC(C)=O)c3C2=O)ccc1OC [Form M, N-[2-[(1S)-1-(3-ethoxy-4-methoxyphenyl)-2-(methylsulfonyl)ethyl]-1,3-dioxo-2,3-dihydro-1H-isoindol-4-yl]acetamide]
– | – | substantially non-hygroscopic | stable with respect to humidity | more than 50% | CCOc1cc([C@@H](CS(C)(=O)=O)N2C(=O)c3cccc(NC(C)=O)c3C2=O)ccc1OC [Form N, N-[2-[(1S)-1-(3-ethoxy-4-methoxyphenyl)-2-(methylsulfonyl)ethyl]-1,3-dioxo-2,3-dihydro-1H-isoindol-4-yl]acetamide]
